Assay results as given in ChEMBL document CHEMBL6096674, “Design, Synthesis, and Anticancer Activity of Drug-like Iron Chelators/G-Quadruplex Binders as Synergic Dual Targeting Agents” (J Med Chem, 2025).
Calls of active or inactive are those of the source. The rule behind the calls is not given here.

Key:
[1] = Metal chelating activity assessed as affinity to Fe3+ at compound:iron concentration ratio of 3:1 and measured at pH 7.4
[2] = Metal chelating activity assessed as free Fe2+ chelation by measuring decrease in cellular LIP content at IC50 measured after 48 hrs by red fluorescent probe based fluorescence microscopy
Quadruplex DNA [3] = test: Stabilization of human Hybrid Tel23 G4-quadruplex DNA (5'-TAGGGTTAGGGTTAGGGTTAGGG-3') assessed as change in melting temperature at 5 equiv. by CD melting based analysis; assay type: nucleic-acid assay
Quadruplex DNA [4] = test: Stabilization of Parallel c-Kit2 G4-quadruplex DNA (5'-CGGGCGGGCGCTAGGGAGGGT-3') (unknown origin) assessed as change in melting temperature at 5 equiv. by CD melting based analysis; assay type: nucleic-acid assay
Quadruplex DNA [5] = test: Stabilization of Hybrid Bcl2 G4-quadruplex DNA (5'-AGGGCGCGGGAGGAAGGGGGCGGGA-3') (unknown origin) assessed as change in melting temperature at 5 equiv. by CD melting based analysis; assay type: nucleic-acid assay
HCT-116 = test: Antiproliferative activity against human HCT-116 cells assessed as decrease in cell survival incubated for 48 hrs by MTT assay; assay type: functional, cell-based; conditions: HCT-116, 48 h
[6] = Cytotoxicity against human HaCaT cells assessed as decrease in cell survival incubated for 48 hrs by MTT assay; assay type: toxicity, cell-based
Quadruplex DNA [7] = test: Stabilization of Parallel c-Myc G4-quadruplex DNA (5'-TGAGGGTGGGTAGGGTGGGTAA-3') (unknown origin) assessed as change in melting temperature at 5 equiv. by CD melting based analysis; assay type: nucleic-acid assay
Jurkat [8] = test: Antiproliferative activity against human Jurkat cells assessed as decrease in cell survival incubated for 48 hrs by MTT assay; assay type: functional, cell-based
A-375 = test: Antiproliferative activity against human A-375 cells assessed as decrease in cell survival incubated for 48 hrs by MTT assay; assay type: functional, cell-based; conditions: A-375, 48 h
MCF7 = test: Antiproliferative activity against human MCF7 cells assessed as decrease in cell survival incubated for 48 hrs by MTT assay; assay type: functional, cell-based; conditions: MCF7, 48 h
Hairpin duplex DNA [9] = test: Stabilization of Hairpin duplex DNA (5'-CGCGAATTCGCGTTTCGCGAATTCGCG-3') (unknown origin) assessed as change in melting temperature at 5 equiv. by CD melting based analysis; assay type: nucleic-acid assay
Jurkat [10] = test: Antiproliferative activity human Jurkat cells assessed as reduction in cell number incubated for 48 hrs by phase contrast light microscopy; assay type: functional, cell-based; conditions: dose 10-100 µM
Quadruplex DNA [11] = test: Stabilization of Parallel c-Kit1 G4-quadruplex DNA (5'-AGGGAGGGCGCTGGGAGGAGGG-3') (unknown origin) assessed as change in melting temperature at 5 equiv. by CD melting based analysis; assay type: nucleic-acid assay
Quadruplex DNA [12] = test: Binding affinity to Cy5-labeled c-Kit2 G4-quadruplex DNA (Cy5-CGGGCGGGCGCTAGGGAGGGT-3') (unknown origin) assessed as equilibrium dissociation constant measured at 25 degC by microscale thermophoresis analysis; assay type: nucleic-acid assay
Quadruplex DNA [13] = test: Binding affinity to c-Myc G4-quadruplex DNA (5'-TGAGGGTGGGTAGGGTGGGTAA-3') (unknown origin) assessed as perturbations of imino protons of G9,G13,G18,G22 within 3' G-tetrad at compound:G4 ratio of 2:1 by 1D 1H NMR analysis; assay type: nucleic-acid assay
[14] = Metal chelating activity assessed as compound-Fe3+ complex formation at compound:iron concentration ratio of 2:1 and measured in acidic medium
Quadruplex DNA [15] = test: Binding affinity to Cy5-labeled Bcl-2 G4-quadruplex DNA (Cy5-AGGGCGCGGGAGGAAGGGGGCGGGA-3') (unknown origin) assessed as equilibrium dissociation constant measured at 25 degC by microscale thermophoresis analysis; assay type: nucleic-acid assay
Quadruplex DNA [16] = test: Binding affinity to Cy5-labeled c-Myc G4-quadruplex DNA (Cy5-TGAGGGTGGGTAGGGTGGGTAA-3') (unknown origin) assessed as equilibrium dissociation constant measured at 25 degC by microscale thermophoresis analysis; assay type: nucleic-acid assay
Hairpin duplex DNA [17] = test: Binding affinity to Cy5-labeled Hairpin duplex DNA (Cy5-CGCGAATTCGCGTTTCGCGAATTCGCG-3') (unknown origin) assessed as equilibrium dissociation constant measured at 25 degC by microscale thermophoresis analysis; assay type: nucleic-acid assay
Quadruplex DNA [18] = test: Binding affinity to Bcl-2 G4-quadruplex DNA (5'-AGGGCGCGGGAGGAAGGGGGCGGGA-3') (unknown origin) assessed as perturbations of imino protons of G7,G19 and G23 within 3' G-tetrad with no significant change in aromatic proton regions upto compound:G4 ratio of 6:1 by ID IH NMR analysis; assay type: nucleic-acid assay
Quadruplex DNA [19] = test: Binding affinity to Bcl-2 G4-quadruplex DNA (5'-AGGGCGCGGGAGGAAGGGGGCGGGA-3') (unknown origin) assessed as perturbations of imino protons of G1,G17 and G21 within 5' G-tetrad with no significant change in aromatic proton regions upto compound:G4 ratio of 6:1 by ID IH NMR analysis; assay type: nucleic-acid assay
[20] = Metal chelating activity assessed as compound-Fe3+ complex formation at compound:iron concentration ratio of 1:1 and measured in acidic medium
Quadruplex DNA [21] = test: Binding affinity to c-Myc G4-quadruplex DNA (5'-TGAGGGTGGGTAGGGTGGGTAA-3') (unknown origin) assessed as perturbations of aromatic protons of T23, A24 and A25 with no significant change in aromatic protons of loops at compound:G4 ratio of 2:1 by 1D 1H NMR analysis; assay type: nucleic-acid assay
[22] = Metal chelating activity assessed as compound-Fe3+ complex formation at compound:iron concentration ratio of 3:1 and measured at pH 6 to 8
Jurkat [23] = test: Induction of apoptosis in human Jurkat cells assessed as induction of phosphotidylserine exposure at IC50 incubated for 48 hrs by fluorescence microscopy; assay type: functional, cell-based
Jurkat [24] = test: Induction of apoptosis in human Jurkat cells assessed as reduction in Bcl-2 expression at IC50 incubated for 24 to 48 hrs by western blot analysis; assay type: functional, cell-based; conditions: time 24-48 hrs
[25] = Drug uptake in human Jurkat cells assessed as localization of compound in nuclear and perinuclear region at IC50 incubated for 24 hrs by NucSpot Live 488 probe based fluorescence microscopy; assay type: ADME, cell-based
Quadruplex DNA [26] = test: Binding affinity to c-Myc G4-quadruplex DNA (5'-TGAGGGTGGGTAGGGTGGGTAA-3') (unknown origin) assessed as perturbations of imino protons of G7,G11,G16,G20 within 5' G-tetrad at compound:G4 ratio of 2:1 by 1D 1H NMR analysis; assay type: nucleic-acid assay
Quadruplex DNA [27] = test: Binding affinity to Bcl-2 G4-quadruplex DNA (5'-AGGGCGCGGGAGGAAGGGGGCGGGA-3') (unknown origin) assessed as perturbations of imino protons of G8,G18 and G22 within middle G-tetrad with no significant change in aromatic proton regions upto compound:G4 ratio of 6:1 by ID IH NMR analysis; assay type: nucleic-acid assay
Quadruplex DNA [28] = test: Binding affinity to c-Myc G4-quadruplex DNA (5'-TGAGGGTGGGTAGGGTGGGTAA-3') (unknown origin) assessed as perturbations of imino protons of G8,G12,G17,G21 within middle G-tetrad at compound:G4 ratio of 2:1 by 1D 1H NMR analysis; assay type: nucleic-acid assay
Quadruplex DNA [29] = test: Binding affinity to human Cy5-labeled Tel23 G4-quadruplex DNA (Cy5-TAGGGTTAGGGTTAGGGTTAGGG-3') assessed as equilibrium dissociation constant measured at 25 degC by microscale thermophoresis analysis; assay type: nucleic-acid assay

Structure (SMILES): Cc1c(O)c(=O)ccn1C
- pFe3+ [1]: 20

Structure (SMILES): CN(C)CCCNC(=O)c1ccc2[nH]c(=O)c3cc(=O)c(OCc4ccccc4)cn3c2c1
- Activity [2]: inactive
- ΔTm (Quadruplex DNA [3]): 5.1 °C
- ΔTm (Quadruplex DNA [4]): 27.6 °C
- ΔTm (Quadruplex DNA [5]): 15.6 °C
- IC50 (HCT-116): > 200 µM
- IC50 at 48 h [6]: > 200 µM
- ΔTm (Quadruplex DNA [7]): 12 °C
- IC50 (Jurkat [8]): 55 µM
- IC50 (A-375): > 200 µM
- IC50 (MCF7): > 200 µM
- ΔTm (Hairpin duplex DNA [9]): 1.5 °C
- Activity (Jurkat [10]): Dose-dependent-effect
- ΔTm (Quadruplex DNA [11]): 9.6 °C

Structure (SMILES): O=C(NCc1ccccc1)c1ccc2[nH]c(=O)c3cc(=O)c(OCc4ccccc4)cn3c2c1
- ΔTm (Quadruplex DNA [3]): 1.2 °C
- ΔTm (Quadruplex DNA [4]): 7.5 °C
- ΔTm (Quadruplex DNA [5]): 3.6 °C
- ΔTm (Quadruplex DNA [7]): 3.7 °C
- ΔTm (Hairpin duplex DNA [9]): 0.3 °C
- ΔTm (Quadruplex DNA [11]): 0.1 °C

Structure (SMILES): O=C(O)c1ccc2[nH]c(=O)c3cc(=O)c(OCc4ccccc4)cn3c2c1
- ΔTm (Quadruplex DNA [3]): 1 °C
- ΔTm (Quadruplex DNA [4]): 3.3 °C
- ΔTm (Quadruplex DNA [5]): 1.4 °C
- ΔTm (Quadruplex DNA [7]): 0.5 °C
- ΔTm (Hairpin duplex DNA [9]): 1 °C
- ΔTm (Quadruplex DNA [11]): -0.1 °C

Structure (SMILES): O=C(NCCN1CCOCC1)c1ccc2[nH]c(=O)c3cc(=O)c(O)cn3c2c1
- ΔTm (Quadruplex DNA [3]): 2.3 °C
- ΔTm (Quadruplex DNA [4]): 5.5 °C
- ΔTm (Quadruplex DNA [5]): -0.5 °C
- ΔTm (Quadruplex DNA [7]): 1.7 °C
- ΔTm (Hairpin duplex DNA [9]): 2.8 °C
- ΔTm (Quadruplex DNA [11]): 2.2 °C

Structure (SMILES): COc1cn2c(cc1=O)c(=O)[nH]c1ccc(C(=O)NCCCN(C)C)cc12
- ΔTm (Quadruplex DNA [3]): 4.2 °C
- ΔTm (Quadruplex DNA [4]): 17.3 °C
- ΔTm (Quadruplex DNA [5]): 13.5 °C
- ΔTm (Quadruplex DNA [7]): 5.9 °C
- ΔTm (Hairpin duplex DNA [9]): 1.8 °C
- ΔTm (Quadruplex DNA [11]): 9.3 °C

Structure (SMILES): O=C(NCCN1CCCC1)c1ccc2[nH]c(=O)c3cc(=O)c(O)cn3c2c1
- ΔTm (Quadruplex DNA [3]): 2.7 °C
- ΔTm (Quadruplex DNA [4]): 6.6 °C
- ΔTm (Quadruplex DNA [5]): 1.6 °C
- ΔTm (Quadruplex DNA [7]): 5 °C
- ΔTm (Hairpin duplex DNA [9]): 2.5 °C
- ΔTm (Quadruplex DNA [11]): 3.6 °C

Structure (SMILES): CN(C)CCCNC(=O)c1ccc2[nH]c(=O)c3cc(=O)c(O)cn3c2c1
- Kd (Quadruplex DNA [12]): 1100 nM
- Activity [2]: Active
- Activity (Quadruplex DNA [13]): Active
- ΔTm (Quadruplex DNA [3]): 3.8 °C
- ΔTm (Quadruplex DNA [4]): 10.1 °C
- Activity [14]: Active
- ΔTm (Quadruplex DNA [5]): 8.7 °C
- Kd (Quadruplex DNA [15]): 500 nM
- IC50 (HCT-116): > 200 µM
- IC50 at 48 h [6]: > 200 µM
- ΔTm (Quadruplex DNA [7]): 7.4 °C
- IC50 (Jurkat [8]): 30 µM
- Kd (Quadruplex DNA [16]): 300 nM
- Kd (Hairpin duplex DNA [17]): > 20 µM
- Activity (Quadruplex DNA [18]): Active
- IC50 (A-375): > 200 µM
- IC50 (MCF7): > 200 µM
- pFe3+ [1]: 16.8
- Activity (Quadruplex DNA [19]): Active
- Activity [20]: Active
- Activity (Quadruplex DNA [21]): Active
- Activity [22]: Active
- ΔTm (Hairpin duplex DNA [9]): 1.8 °C
- Activity (Jurkat [23]): Active
- Activity (Jurkat [10]): Dose-dependent-effect
- Activity (Jurkat [24]): Active
- ΔTm (Quadruplex DNA [11]): 5.5 °C
- Drug uptake [25]: Active
- Activity (Quadruplex DNA [26]): Active
- Activity (Quadruplex DNA [27]): Active
- Activity (Quadruplex DNA [28]): Active
- Kd (Quadruplex DNA [29]): 3.1 µM

Structure (SMILES): N=C(N)NCCCNC(=O)c1ccc2[nH]c(=O)c3cc(=O)c(O)cn3c2c1
- ΔTm (Quadruplex DNA [3]): 2.8 °C
- ΔTm (Quadruplex DNA [4]): 8.6 °C
- ΔTm (Quadruplex DNA [5]): 8.5 °C
- ΔTm (Quadruplex DNA [7]): 3.6 °C
- ΔTm (Hairpin duplex DNA [9]): 0.5 °C
- ΔTm (Quadruplex DNA [11]): 3.2 °C
